Patent US8377967B2, “Piperidine derivative” (Nippon Zoki Pharmaceutical Co., Ltd., priority 2008, dated 2013)

Experiments:
[1] = molecular target: T1, cerebral H1 receptor (Mus musculus, UniProt P70174); experiment: Murine cerebral H1 receptor occupying content (ex vivo); type: in vivo; conditions: for ED50: ICR male mouse, oral administration, brain excised after 1 hour, 3H-pyrilamine binding in brain homogenate, larger = lower brain transfer, read-out: ID50 (the source's name); for ID50 (mg/kg)/ ED50 (mg/kg): ID50 of cerebral receptor binding test (Table 20) divided by ED50 of vascular hyperpermeability test (Table 19)
T1 construct: the entire brain, except for cerebellum and medulla oblongatae, was rapidly excised; from tissue; host or cells: brain homogenate (without cerebellum and medulla oblongata) of orally dosed ICR male mice
T1 sequence (P70174 whole entry): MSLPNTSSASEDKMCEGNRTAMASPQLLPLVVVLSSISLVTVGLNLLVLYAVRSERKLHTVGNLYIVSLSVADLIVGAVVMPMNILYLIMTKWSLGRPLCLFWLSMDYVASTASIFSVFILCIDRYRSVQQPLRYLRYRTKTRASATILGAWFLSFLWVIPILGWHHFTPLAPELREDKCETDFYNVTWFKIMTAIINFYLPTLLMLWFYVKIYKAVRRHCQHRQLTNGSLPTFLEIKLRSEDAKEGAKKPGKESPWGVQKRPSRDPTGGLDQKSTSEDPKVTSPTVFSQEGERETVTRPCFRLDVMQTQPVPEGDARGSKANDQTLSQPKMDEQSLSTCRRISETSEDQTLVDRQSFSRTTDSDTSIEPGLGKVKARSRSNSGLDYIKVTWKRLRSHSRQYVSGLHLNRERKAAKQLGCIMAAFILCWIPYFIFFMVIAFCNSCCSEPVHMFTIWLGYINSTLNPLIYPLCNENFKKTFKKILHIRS

[2] = tested on: histamine-induced vascular hyperpermeability reaction; experiment: Rat histamine-induced vascular hyperpermeability reaction (in vivo antihistamine action); conditions: SD male rat, oral administration 1 hour before intracutaneous histamine, leaked Evans Blue pigment
[3] = molecular target: human histamine H1 receptor (Homo sapiens, UniProt P35367); experiment: In vitro human histamine H1 receptor binding experiment ([3H]pyrilamine); conditions: HEK293A cells stably expressing human histamine H1 receptor, [3H]pyrilamine 3 nmol/L, room temperature 60 minutes
human histamine H1 receptor, sequence (P35367 whole entry): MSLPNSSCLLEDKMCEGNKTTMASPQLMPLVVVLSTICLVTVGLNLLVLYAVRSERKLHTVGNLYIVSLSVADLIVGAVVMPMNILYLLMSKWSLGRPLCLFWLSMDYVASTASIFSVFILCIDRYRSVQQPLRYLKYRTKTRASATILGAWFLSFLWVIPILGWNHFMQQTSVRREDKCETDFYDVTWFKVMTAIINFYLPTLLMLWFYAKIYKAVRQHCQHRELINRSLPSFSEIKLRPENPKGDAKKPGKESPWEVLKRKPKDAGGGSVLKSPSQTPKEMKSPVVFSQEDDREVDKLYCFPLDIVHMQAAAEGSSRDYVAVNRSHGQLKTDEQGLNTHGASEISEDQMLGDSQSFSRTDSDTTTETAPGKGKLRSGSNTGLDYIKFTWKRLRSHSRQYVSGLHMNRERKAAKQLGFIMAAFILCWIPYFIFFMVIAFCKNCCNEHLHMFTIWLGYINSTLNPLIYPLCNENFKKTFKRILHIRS
Procedure, shortened: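 HEK293A cells stably expressing human H1 receptor (3×10^5 cells/well) incubated 60 min at room temperature with test substance and 3 nmol/L [3H]pyrilamine in 50 mmol/L Tris-HCl pH 7.5, 0.1% BSA. Filtration and scintillation counting; nonspecific binding with 30 μmol/L pyrilamine.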

melting point | SMILES | ED50 [1] | ID50 (mg/kg)/ ED50 (mg/kg) [1] | ED50 [2] | IC50 [3]
141 to 142 °C | CN1CCC(=C2c3ccccc3CCc3sc(Br)cc32)CC1 [Compound 212, 4-(2-Bromo-9,10-dihydro-1-thiabenzo[f]azulen-4-ylidene)-1-methylpiperidine] | – | – | – | –
– | CCOC(=O)C=Cc1cc2c(s1)CCc1ccccc1C2=C1CCNCC1.Cl [Compound 145, Ethyl 3-(4-piperidin-4-ylidene-9,10-dihydro-4H-1-thiabenzo[f]azulen-2-yl)acrylate hydrochloride] | > 200 mg/kg | >689.7 | 0.29 mg/kg | 68.6 nM
– | CN1CCC(=C2c3ccccc3CCc3sc(CNC(N)=O)cc32)CC1 [Compound 49, 2-Ureidomethyl-4-(1-methylpiperidin-4-ylidene)-9,10-dihydro-4H-1-thiabenzo[f]azulene] | 33.9 mg/kg | 33.9 | ~1 mg/kg | 32.5 nM
– | COC(=O)CSc1ccc2c(c1)C(=C1CCN(C)CC1)c1sccc1CO2.Cl [Compound 171, Methyl[4-(1-methylpiperidin-4-ylidene)-4,10-dihydro-9-oxa-3-thiabenzo[f]azulen-6-ylsulfanyl]acetate hydrochloride] | 29.6 mg/kg | 405.5 | 0.073 mg/kg | 4.16 nM
– | CCN1CCC(=C2c3cc(CCCC(=O)O)ccc3OCc3ccsc32)CC1 [Compound 142, 4-[4-(1-Ethylpiperidin-4-ylidene)-4,10-dihydro-9-oxa-3-thiabenzo[f]azulen-6-yl]butyric acid] | 11.9 mg/kg | 39.7 | ~0.3 mg/kg | 90.9 nM
